Experimental data as given in patent US11766442B2, “T-cell lymphoma treatments” (City of Hope, priority 2017, dated 2023).
Where two headings read alike, the source gives them in different places.

Assays:
HUT78 cells = experiment: Cell viability assay using HUT78 cells in a CELLTITER-GLO assay; type: cell-based, human
Experimental: Compound (1) and FK-228 (an anticancer agent used in CTCL) were tested in a cell viability assay using HUT78 cells in a CELLTITER-GLO® assay. […] See, FIG. 1B.
Compound (2) (FIG. 8A) was tested in a cell viability assay using HUT78 cells in a CELLTITER-GLO® assay. To determine IC50 value of Compound (2) against human CTCL HUT78 cells, viability assay was performed using CELLTITER-GLO® Reagent as described by the supplier (Promega, Madison, WI). Briefly, cells (7500/well) were seeded in opaque 96-well plates and exposed to Compound (1) in a dose-dependent manner for 72 h at 37° C. in 5% CO2. After 72 h treatment with compound (1), CELLTITER-GLO® Reagent ([…]) was added to 96-well plates. Viable cells which are metabolically active are directly proportional to the ATP present. Luminescent signals correlate with the amount of ATP present in cells. After 10 min incubation with CELLTITER-GLO® Reagent, luminescence was measured at an integration time of 1 second/well using an automated BMG plate reader. Dimethyl sulfoxide (DMSO) was used as the vehicle control. Each experiment was conducted in triplicate. IC50 values were determined using CalcuSyn software (Biosoft).

HUT78 CTCL cells [1] = experiment: Carboxy-fluorescein succinimidyl ester (CFSE) staining cell proliferation assay; type: cell-based, human; conditions: 1.0, 10 or 100 nM, incubated 72 h
Experimental: Compound (1) was tested in a carboxy-fluorescein succinimidyl ester (CFSE) stained HUT78 CTCL proliferation assay. HUT78 cells were stained with CFSE dye. The CFSE stained cells were plated into 96-well plates in growth medium. The resulted cells were treated with 1.0, 10, or 100 nM solution of compound (1), and then incubated for 72 h under the growth conditions. After, optical densities were read on a multiwell scanning spectrophotometer at wavelength 488 nm.

HUT78 CTCL cells [2] = system: HUT78 CTCL cells
Experimental: Compound (1) was tested in a cell proliferation assay using HUT78 CTCL cells. The cells were treated with 0.3, 1, 3, 10, 30, or 100 nM concentration of compound (1), and then incubated for 48 h or 72 h under the growth conditions. […] Cells cultured in the absence of compound (1) served as a control.

HUT78 CTCL cells [3] = experiment: Cell apoptosis assay using HUT78 CTCL cells; type: cell-based, human; conditions: incubated 72 h, read-out: IC50, apoptosis induction
Experimental: Compound (1) was tested in a cell apoptosis assay using HUT78 CTCL cells.

[4] = system: HUT78 CTCL mouse xenograft; experiment: HUT78 CTCL mouse xenograft model; type: in vivo; conditions: for Drug associated toxicity observed in mice: compound (1) 20 mg/kg gavage, FK-228 2 mg/kg intraperitoneal twice weekly
Experimental: Compound (1) and FK-228 were tested for tumor growth inhibition in CTCL mouse xenograft models. One group of mice was treated with 20 mg/kg of compound (1) using gavage during 3 consecutive days, followed by 3 consecutive days of break. Another group of mice was treated with 2 mg/kg of FK-228 intraperitoneal, twice weekly. Mice with no treatment served as a control. The tumor volume, size, and weight were compared 12 days after the treatments started.

SMILES | IC50 (HUT78 cells; Homo sapiens) [µM] | IC50 (HUT78 cells) [µM] | Inhibition of proliferation of CFSE stained HUT78 CTCL cells (HUT78 CTCL cells [1]) | IC50 (HUT78 CTCL cells [2]; read-out: IC50, cell proliferation, incubated 48 h) [µM] | IC50 (HUT78 CTCL cells [2]; read-out: IC50, cell proliferation, incubated 72 h) [µM] | IC50 (HUT78 CTCL cells [3]) [µM] | Reduction of the tumor size ([4]; 20 mg/kg gavage, 3 consecutive days on, 3 days break, 12 days after treatment start) | Tumor weight inhibition ([4]; 20 mg/kg gavage, 3 consecutive days on, 3 days break, 12 days after treatment start, P<0.001) [%] | Tumor growth inhibition (tumor volume) ([4]; 20 mg/kg gavage, 3 consecutive days on, 3 days break, compared 12 days after treatment start, versus FK-228 regimen and vehicle) | Drug associated toxicity observed in mice [4]
C/C=C1\NC(=O)[C@H]2CSSCC/C=C/[C@H](CC(=O)N[C@H](C(C)C)C(=O)N2)OC(=O)[C@H](C(C)C)NC1=O [FK-228, Romidepsin, reference compound] | 0.00695 |  |  |  |  |  |  |  |  | 
CN1C(=O)[C@@]23C[C@](C)(C#N)[C@H](c4ccc5c(c4)OCO5)N2C(=O)C1(C)S3=S (some centres unmarked) [compound (1)] |  | 0.00661 | inhibits proliferation of HUT78 CTCL cells | 0.075 | 0.01 | 0.0197 | results in the reduction of the tumor size | 89.8 | results in tumor growth inhibition | no toxicity was observed
C/C=C1\NC(=O)[C@H]2CSSCC/C=C/[C@H](CC(=O)N[C@H](C(C)C)C(=O)N2)OC(=O)[C@H](C(C)C)NC1=O [romidespin, romidepsin, reference compound] |  |  |  |  |  |  |  |  |  | Ascites and diarrhea
